Assays:
[1] = test system: Hepatoma cell line; test: Antiviral activity against hepatitis B virus in human hepatoma cell line (2.2.15 cells); type: functional, cell-based
[2] = Selectivity measured as the ratio between IC50 value and EC50 value; type: functional
[3] = test system: CCRF-CEM; test: Cytotoxicity in H1 CEM cells; type: functional, cell-based; details: Homo sapiens
[4] = test system: CCRF-CEM; test: Compound was evaluated for cytotoxicity by inhibition of mitochondrial DNA synthesis; type: functional, cell-based; details: Homo sapiens

| SMILES | EC50 [1] [µM] | Selectivity [2] | IC50 [3] [µM] | IC50 [4] [µM] |
| --- | --- | --- | --- | --- |
| Nc1ccn([C@H]2CO[C@@H](CO)O2)c(=O)n1 | 0.01 | 240 | 2.4 | > 10 |
| Nc1ccn([C@H]2CO[C@H](CO)O2)c(=O)n1 | > 5 |  | > 50 | > 50 |
| Nc1ccn([C@@H]2CO[C@H](CO)O2)c(=O)n1 [TROXACITABINE] | 0.0005 |  | 0.056 | > 1 |
| Nc1ccn([C@@H]2CS[C@H](CO)O2)c(=O)n1 [LAMIVUDINE] | 0.01 |  | 50 | 50 |
| O=c1ccn([C@H]2CO[C@@H](CO)O2)c(=O)[nH]1 | > 20 |  |  |  |
| O=c1[nH]c(=O)n([C@H]2CO[C@@H](CO)O2)cc1Br | > 5 |  |  |  |
| O=c1[nH]c(=O)n([C@H]2CO[C@@H](CO)O2)cc1F | > 5 |  |  |  |
| Nc1ccn([C@@H]2CO[C@@H](CO)O2)c(=O)n1 | 5 |  |  |  |
